# Patent US20080146555A1, “Uses of Kinase Inhibitors and Compositions Thereof” (GPC Biotech, Inc, priority 2004, published 2008)
# pIC50: −log10 of the molar value. Where “and” joins values, the source holds several entries; their conditions need not be identical. Equal entries are not always repeated. Structures can show the parent of a compound that is named as a salt. Where two headings read alike, the source gives them in different places.
# Assays:
# [1] = system: 1A9; assay: SRB cytotoxicity, 1A9 parental cells; type: cell-based; details: Homo sapiens, 72 h
# Description: (§1) In these experiments, the P-glycoprotein expressing NCI-Adr resistant subline (Vickers et al., 1989. Mol Endocrinology 3 (1):157-164) was used. […] Briefly, cells were plated in 96 well dishes 24 hours prior to compound addition. Where noted, they were exposed to verapamil for 4 hours prior to compound addition and then throughout the treatment period (72 hours). The assay was terminated with the addition of cold TCA to a final concentration of 10% and the plates were incubated for one hour at 4° C. The plates were then washed 5 times with water and 100 μl of a Sulforhodamine B solution (4%) was added to each well. The plate was then incubated for 10 minutes at room temperature before removal of unbound dye by washing with 1% acetic acid.
# The tubulin mutated, paclitaxel-resistant human ovarian carcinoma cell line 1A9-PTX10 and its parental paclitaxel-sensitive cell line 1A9 were derived from the A2780 human ovarian carcinoma cell line (J Biol Chem (1997) 272, 17118-17124).
# [2] = target: panel of Tyr kinases; assay: Kinase panel, Tyr kinases (average); type: biochemical; details: average over panel; read-out: average IC50 among Tyr kinases
# [3] = target: T1, AMPK; assay: AMPK kinase assay; type: biochemical, rat
# T1 construct: purified from rat-human # = U06454
# Description: • 1. AMPK Reaction Buffer: 20 mM HEPES-NaOH, pH 7.0, 0.4 mM dithiothreitol, 0.01% Brij-35, with or without 300 μM AMP. • 2. SAMS Substrate Peptide (Catalog #12-355): Use 7 μl per reaction for final assay concentration of 100 μM. • 3. AMP-Activated Protein Kinase: Dilute enzyme to 2-10 mU/μl in AMPK Reaction Buffer with or without 300 μM AMP. AMP can be purchased from Sigma-Aldrich, Catalog #A1752. • 4. [γ-^32P]ATP: Stock 1 mCi/100 μl (3000 Ci/mmol, obtained from PerkinElmer, Cat. # BLU002A). Make 10 μl aliquots (100 μCi/vial). […]
# • NOTE: Negative controls should be run with all reagents containing no AMP. • 1. Add 13 μl of Reaction Buffer per assay. • 2. Add 7 μl of SAMS substrate peptide [100 μM final assay concentration]. • 3. Add 10 μl of AMP-Activated Protein Kinase [20-100 mU]. • 4. Add 10 μl of the diluted [^32P]ATP mixture. • 5. Incubate for 15 minutes at 30° C. in a shaking incubator. • 6. Spot 35 μl onto the center of a 2 cm×2 cm P81 paper square. • 7. Wash the assay squares three times with 0.75% phosphoric acid for 5 minutes. • 8. Wash the assay squares once with acetone for 5 minutes. • 9. Transfer the assay squares to vial and add 5 ml scintillation cocktail. • 10. Read in scintillation counter. Compare cpm of enzyme samples to cpm of control samples that contain no enzyme (background control).
# [4] = system: CEM; assay: SRB cytotoxicity, CEM parental cells; type: cell-based; details: Homo sapiens, CCRF-CEM, 72 h
# Description: as §1
# The Camptothecin resistant CEM/C2 cells were derived from the T lymphoblastoid leukemia cell line CCRF/CEM by selection in the presence of Camptothecin in vitro (Kapoor et al., 1995. Oncology Research 7; 83-95, ATCC).
# The effects of A37 and B16 were evaluated in the CCRF/CEM and CEM/C2 cells using the same SRB assay as described above, with 72-hour drug exposure.
# [5] = target: T2, Abl T315I (Homo sapiens, UniProt P00519, T315I); assay: Abl T315I kinase assay; type: biochemical
# T2 construct: purchased Upstate 14-522
# Description: • 1. 5× Reaction Buffer: 40 mM MOPS, pH 7.0, 1 mM EDTA. • 2. Enzyme Dilution Buffer (EDB): 20 mM MOPS, pH 7.0, 1 mM EDTA, 0.01% Brij-35, 5% glycerol, 0.1% β-mercaptoethanol, 1 mg/ml BSA. • 3. […] Use 2.5 μl per assay point. • 4. […] Use 2.5 μl per assay point for a final assay concentration of 50 μM per assay point. • 5. [γ-^32P]ATP: Stock 1 mCi/100 μl (3000 Ci/mmol, obtained from PerkinElmer, Cat. # BLU002A). Make 10 μl aliquots (100 μCi/vial).
# • 1. Add 5 μl of 5× Reaction Buffer per assay. • 2. Add 2.5 μl of Abltide (50 μM). • 3. […] Add 5 μl sterile, distilled water. • 5. Add 10 μl of the diluted [γ-^32P]ATP solution. • 6. Incubate for 10 minutes at 30° C. • 7. Transfer a 20 μl aliquot onto the center of a 2 cm×2 cm P81 paper. • 8. […] Wash the assay squares once for 5 minutes with acetone. • 10. Transfer the assay squares to vial and add 5 ml scintillation cocktail. • 11. Read in scintillation counter. Compare cpm of enzyme samples to cpm of control samples that contain background control.
# [6] = enzyme purified from rat, read-out: PRKAA2 (AMPK) Inhibition (IC50)
# [7] = read-out: Inhibition (IC50), Table II (accession U07563, no symbol)
Structure (SMILES),pIC50 [1],pIC50 [2],"pIC50 [3, 6]","pIC50 ([3]; kinase panel, 10 μM ATP, read-out: AMPK IC50)",pIC50 [4],pIC50 ([5]; read-out: Abl T315I IC50),"pIC50 [5, 7]"
"COCCN1CCN(Cc2ccc(-c3n[nH]c4c3C(=O)c3c(NC(=O)NN5CCOCC5)cccc3-4)cc2)CC1 [Compound B16, N-[3-(4-{[4-(2-methoxyethyl)piperazinyl]methyl}phenyl)-4-oxoindeno[2,3-d]pyrazol-5-yl](morpholin-4-ylamino)carboxamide dihydrochloride]",7.97,~7.26,> 7.30,> 7.00,7.60,~7.00,> 7.00
CC(C)N1CCN(C(=O)COc2ccc(-c3n[nH]c4c3C(=O)c3c(NC(=O)NN5CCOCC5)cccc3-4)cc2)CC1 [Compound A37],7.88,~7.43 and 7.45,> 7.00,,7.67,7.06,> 7.00
